Values joined by “and” are separate entries in the source; they are usually repeats but may differ in a detail not shown here. Identical values can stand only once. Like-named read-outs stand apart in the source and are kept apart here.
Key:
CypA = target: T1, CypA (Homo sapiens, UniProt P62937); assay: Chymotrypsin coupled prolyl-isomerase assay; assay type: biochemical; details: for CypA prolyl-isomerase assay raw dose-response value: Fig. 3b source data, replicates
T1 construct: PPIA (UniProtKB Entry P62937: residues 1–165); made in house; host or cells: E. coli BL21(DE3)
T1 sequence (P62937 whole entry, the tested form may be a part): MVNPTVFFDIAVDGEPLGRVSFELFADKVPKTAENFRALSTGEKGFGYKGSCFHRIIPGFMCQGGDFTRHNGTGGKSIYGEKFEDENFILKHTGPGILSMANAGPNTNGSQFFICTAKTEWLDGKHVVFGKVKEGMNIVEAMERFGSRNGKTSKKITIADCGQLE
How it was run: (§1)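 Chymotrypsin-coupled cis–trans isomerization of Suc-AAPF-AMC (5 µM) catalysed by 5 nM cyclophilin, run cold (2–3 °C) at pH 7.3 with 5 min compound preincubation.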

CypA E81S/K82R = target: T2, CypA E81S/K82R (Homo sapiens, UniProt P62937, E81S/K82R); assay: Chymotrypsin coupled prolyl-isomerase assay; assay type: biochemical; details: mutant CypA E81S/K82R; read-out: Mutant Cyclophilin Prolyl Isomerase Inhibition IC50 Values, CypA E81S/K82R
T2 construct: Lane 12- SNA-CypA E81S/K82R (1-165);; His6 tag with TEV site (2BT vector); SNA remnant stays on the N-terminus (N, cleaved yes); made in house; host or cells: E. coli BL21(DE3)
T2 sequence (P62937 whole entry E81S/K82R): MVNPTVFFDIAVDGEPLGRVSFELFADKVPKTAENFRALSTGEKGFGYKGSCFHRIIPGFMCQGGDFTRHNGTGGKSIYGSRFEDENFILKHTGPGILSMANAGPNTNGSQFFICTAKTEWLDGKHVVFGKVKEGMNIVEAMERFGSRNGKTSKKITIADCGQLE
How it was run: as §1

CypC = target: T3, CypC (Homo sapiens, UniProt P45877); assay: Chymotrypsin coupled prolyl-isomerase assay; assay type: biochemical; details: for CypC prolyl-isomerase assay raw dose-response value: Fig. 3b source data, replicates
T3 construct: PPIC (UniProtKB Entry P45877: residues 24–212); host or cells: E. coli BL21(DE3)
T3 sequence (P45877 24-212): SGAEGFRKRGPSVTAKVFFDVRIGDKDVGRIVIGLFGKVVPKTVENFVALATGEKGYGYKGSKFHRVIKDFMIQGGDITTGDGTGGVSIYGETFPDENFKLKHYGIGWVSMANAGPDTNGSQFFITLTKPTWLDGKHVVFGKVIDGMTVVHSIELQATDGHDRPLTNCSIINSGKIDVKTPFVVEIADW
How it was run: as §1

CypD K118A = target: T4, CypD K118A (Homo sapiens, UniProt P30405, K118A); assay: Chymotrypsin coupled prolyl-isomerase assay; assay type: biochemical; details: prolyl-isomerase inhibition
T4 construct: made in house; host or cells: E. coli BL21(DE3)
T4 sequence (P30405 45-207 K118A): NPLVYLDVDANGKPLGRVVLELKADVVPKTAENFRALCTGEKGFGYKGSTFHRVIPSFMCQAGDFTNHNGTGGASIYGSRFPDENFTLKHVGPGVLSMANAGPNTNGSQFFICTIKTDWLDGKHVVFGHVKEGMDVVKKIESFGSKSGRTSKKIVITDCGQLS
How it was run: as §1

CypD K118E = target: T5, CypD K118E (Homo sapiens, UniProt P30405, K118E); assay: Chymotrypsin coupled prolyl-isomerase assay; assay type: biochemical; details: prolyl-isomerase inhibition
T5 construct: made in house; host or cells: E. coli BL21(DE3)
T5 sequence (P30405 45-207 K118E): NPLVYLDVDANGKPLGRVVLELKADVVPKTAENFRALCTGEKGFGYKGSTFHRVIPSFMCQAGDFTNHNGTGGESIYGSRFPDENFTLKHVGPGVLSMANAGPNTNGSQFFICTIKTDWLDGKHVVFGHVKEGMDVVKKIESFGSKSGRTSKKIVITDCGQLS
How it was run: as §1

CypD R124A = target: T6, CypD R124A (Homo sapiens, UniProt P30405, R124A); assay: Chymotrypsin coupled prolyl-isomerase assay; assay type: biochemical; details: mutant CypD R124A; read-out: Mutant Cyclophilin Prolyl Isomerase Inhibition IC50 Values, CypD R124A
T6 construct: made in house; host or cells: E. coli BL21(DE3)
T6 sequence (P30405 45-207 R124A): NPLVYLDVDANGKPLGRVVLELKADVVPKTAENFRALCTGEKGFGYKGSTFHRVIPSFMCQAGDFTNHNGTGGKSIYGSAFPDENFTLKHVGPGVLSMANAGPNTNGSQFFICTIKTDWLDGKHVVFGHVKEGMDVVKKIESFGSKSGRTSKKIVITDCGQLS
How it was run: as §1

CypD R124K = target: T7, CypD R124K (Homo sapiens, UniProt P30405, R124K); assay: Chymotrypsin coupled prolyl-isomerase assay; assay type: biochemical; details: mutant CypD R124K; read-out: Mutant Cyclophilin Prolyl Isomerase Inhibition IC50 Values, CypD R124K
T7 construct: made in house; host or cells: E. coli BL21(DE3)
T7 sequence (P30405 45-207 R124K): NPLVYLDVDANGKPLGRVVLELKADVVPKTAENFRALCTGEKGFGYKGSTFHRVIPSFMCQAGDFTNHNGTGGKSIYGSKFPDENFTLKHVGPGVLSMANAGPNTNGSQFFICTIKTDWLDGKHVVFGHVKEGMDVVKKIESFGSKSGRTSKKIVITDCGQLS
How it was run: as §1

CypD S123E = target: T8, CypD S123E (Homo sapiens, UniProt P30405, S123E); assay: Chymotrypsin coupled prolyl-isomerase assay; assay type: biochemical; details: prolyl-isomerase inhibition
T8 construct: made in house; host or cells: E. coli BL21(DE3)
T8 sequence (P30405 45-207 S123E): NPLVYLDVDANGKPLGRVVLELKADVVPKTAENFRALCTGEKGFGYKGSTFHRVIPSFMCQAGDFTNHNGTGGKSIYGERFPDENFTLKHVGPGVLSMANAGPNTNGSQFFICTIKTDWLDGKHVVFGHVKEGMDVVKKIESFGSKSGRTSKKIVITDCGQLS
How it was run: as §1

CypE = target: T9, CypE (Homo sapiens, UniProt Q9UNP9); assay: Chymotrypsin coupled prolyl-isomerase assay; assay type: biochemical; details: for CypE prolyl-isomerase assay raw dose-response value: Fig. 3b source data, replicates
T9 construct: PPIE (UniProtKB Entry Q9UNP9: residues 131–301); host or cells: E. coli BL21(DE3)
T9 sequence (Q9UNP9 131-301): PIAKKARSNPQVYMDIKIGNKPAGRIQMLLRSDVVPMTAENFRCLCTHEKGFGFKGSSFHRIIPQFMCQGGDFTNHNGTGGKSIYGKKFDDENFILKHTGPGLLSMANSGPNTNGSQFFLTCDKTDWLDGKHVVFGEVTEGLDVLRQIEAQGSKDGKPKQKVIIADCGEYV
How it was run: as §1

CypG = target: T10, CypG (Homo sapiens, UniProt Q13427); assay: Chymotrypsin coupled prolyl-isomerase assay; assay type: biochemical; details: for CypG prolyl-isomerase assay raw dose-response value: Fig. 3b source data, replicates
T10 construct: PPIG (UniProtKB Entry Q13427: residues 1–179); His6 with thrombin site (pET28a LIC leader) (N); host or cells: E. coli BL21(DE3)
T10 sequence (Q13427 1-179): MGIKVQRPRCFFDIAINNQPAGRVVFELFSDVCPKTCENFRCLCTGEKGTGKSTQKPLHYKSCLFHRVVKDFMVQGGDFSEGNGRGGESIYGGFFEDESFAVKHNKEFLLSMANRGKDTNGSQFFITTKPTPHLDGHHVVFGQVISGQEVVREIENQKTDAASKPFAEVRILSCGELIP
How it was run: as §1

CypH = target: T11, CypH (Homo sapiens, UniProt O43447); assay: Chymotrypsin coupled prolyl-isomerase assay; assay type: biochemical; details: for CypH prolyl-isomerase assay raw dose-response value: Fig. 3b source data, replicates
T11 construct: PPIH (UniProtKB Entry O43447: residues 1–177); His6 with TEV site (2BT vector leader) (N); made in house; host or cells: E. coli BL21(DE3)
T11 sequence (O43447 whole entry, the tested form may be a part): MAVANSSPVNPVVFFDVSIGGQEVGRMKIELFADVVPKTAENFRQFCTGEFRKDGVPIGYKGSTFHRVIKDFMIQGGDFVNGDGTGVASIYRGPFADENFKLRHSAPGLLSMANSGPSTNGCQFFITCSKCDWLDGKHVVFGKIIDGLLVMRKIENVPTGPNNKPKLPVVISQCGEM
How it was run: as §1

CypB E121S = target: T12, CypB E121S (Homo sapiens, UniProt P23284, E121S); assay: biochemical; details: mutant CypB E121S; read-out: Mutant Cyclophilin Prolyl Isomerase Inhibition IC50 Values, CypB E121S
T12 construct: Lane 14- SNA-CypB E121S (34-216);; His6 tag with TEV site (2BT vector); SNA remnant stays on the N-terminus (N, cleaved yes); made in house; host or cells: E. coli BL21(DE3)
T12 sequence (P23284 34-216 E121S): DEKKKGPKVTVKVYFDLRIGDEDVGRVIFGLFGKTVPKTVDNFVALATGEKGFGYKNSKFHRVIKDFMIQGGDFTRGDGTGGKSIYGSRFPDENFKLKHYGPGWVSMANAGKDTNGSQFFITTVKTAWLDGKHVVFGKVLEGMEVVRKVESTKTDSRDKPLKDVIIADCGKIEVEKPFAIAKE
How it was run: as §1

## NCCOCCNC(=O)[C@@H]1CCNC(=O)/C=C/C(=O)N2CCC[C@](Cc3ccccc3)(C2)C(=O)N[C@@H](Cc2ccc(-c3ccc(CCC(=O)O)cc3)cc2)C(=O)NCc2ccccc2CC(=O)N1 [Compound B23]
CypA; CypA column within the mutant section (comparator for CypA E81S/K82R), read-out: Mutant Cyclophilin Prolyl Isomerase Inhibition IC50 Values, CypA
  IC50: 80 nM
CypA; Dose 0.0201875 µM
  CypA prolyl-isomerase assay raw dose-response value: 0.09097 and 0.1013 and 0.1158
CypA; Dose 0.0605624 µM
  CypA prolyl-isomerase assay raw dose-response value: 0.07524 and 0.06823 and 0.07786
CypA; Dose 0.181687 µM
  CypA prolyl-isomerase assay raw dose-response value: 0.04845 and 0.04593 and 0.054
CypA; Dose 0.545062 µM
  CypA prolyl-isomerase assay raw dose-response value: 0.03092 and 0.02915 and 0.02773
CypA; Dose 1.63519 µM
  CypA prolyl-isomerase assay raw dose-response value: 0.0188 and 0.01847 and 0.01826
CypA; Dose 4.90556 µM
  CypA prolyl-isomerase assay raw dose-response value: 0.01632 and 0.01475 and 0.01432
CypA; Dose 14.7167 µM
  CypA prolyl-isomerase assay raw dose-response value: 0.01473 and 0.01273 and 0.01279
CypA; Dose 44.15 µM
  CypA prolyl-isomerase assay raw dose-response value: 0.01511 and 0.01244 and 0.01258
CypA; prolyl-isomerase inhibition, 5 nM cyclophilin, read-out: IC50 CypA
  IC50: 80 ± 10 nM
CypA; prolyl-isomerase inhibition, read-out: IC50 CypA
  IC50: 80 nM
CypA; wild-type CypA, read-out: Wild-Type Cyclophilin Prolyl Isomerase Inhibition IC50 Values, CypA
  IC50: 80 nM
CypA E81S/K82R
  IC50: 23 nM
CypC; Dose 0.0201875 µM
  CypC prolyl-isomerase assay raw dose-response value: 0.0364 and 0.03611 and 0.04566
CypC; Dose 0.0605624 µM
  CypC prolyl-isomerase assay raw dose-response value: 0.03688 and 0.04021 and 0.04113
CypC; Dose 0.181687 µM
  CypC prolyl-isomerase assay raw dose-response value: 0.04275 and 0.03781 and 0.03638
CypC; Dose 0.545062 µM
  CypC prolyl-isomerase assay raw dose-response value: 0.03775 and 0.04123 and 0.03915
CypC; Dose 1.63519 µM
  CypC prolyl-isomerase assay raw dose-response value: 0.0345 and 0.03482 and 0.03957
CypC; Dose 4.90556 µM
  CypC prolyl-isomerase assay raw dose-response value: 0.0293 and 0.02714 and 0.0334
CypC; Dose 14.7167 µM
  CypC prolyl-isomerase assay raw dose-response value: 0.02525 and 0.02065 and 0.02297
CypC; Dose 44.15 µM
  CypC prolyl-isomerase assay raw dose-response value: 0.02045 and 0.01408 and 0.0166
CypC; wild-type CypC, read-out: Wild-Type Cyclophilin Prolyl Isomerase Inhibition IC50 Values, CypC
  IC50: 5000 nM
CypD K118A
  IC50: 70 nM
CypD K118E
  IC50: 180 nM
CypD R124A
  IC50: 3 nM
CypD R124K
  IC50: 2.9 nM
CypD S123E
  IC50: 23 nM
CypE; Dose 0.00457247 µM
  CypE prolyl-isomerase assay raw dose-response value: 0.1029 and 0.09388 and 0.1478
CypE; Dose 0.0137174 µM
  CypE prolyl-isomerase assay raw dose-response value: 0.07275 and 0.07554 and 0.1142
CypE; Dose 0.0411523 µM
  CypE prolyl-isomerase assay raw dose-response value: 0.04814 and 0.04078 and 0.05584
CypE; Dose 0.123457 µM
  CypE prolyl-isomerase assay raw dose-response value: 0.02663 and 0.02961 and 0.04183
CypE; Dose 0.37037 µM
  CypE prolyl-isomerase assay raw dose-response value: 0.01687 and 0.01785 and 0.01578
CypE; Dose 1.11111 µM
  CypE prolyl-isomerase assay raw dose-response value: 0.01294 and 0.01514 and 0.0179
CypE; Dose 3.33333 µM
  CypE prolyl-isomerase assay raw dose-response value: 0.01306 and 0.01252 and 0.01422
CypE; Dose 10 µM
  CypE prolyl-isomerase assay raw dose-response value: 0.01752 and 0.01195 and 0.01258
CypE; wild-type CypE, read-out: Wild-Type Cyclophilin Prolyl Isomerase Inhibition IC50 Values, CypE
  IC50: 19 nM
CypG; Dose 0.0201875 µM
  CypG prolyl-isomerase assay raw dose-response value: 0.05557 and 0.07057 and 0.08284
CypG; Dose 0.0605624 µM
  CypG prolyl-isomerase assay raw dose-response value: 0.06342 and 0.06664 and 0.0785
CypG; Dose 0.181687 µM
  CypG prolyl-isomerase assay raw dose-response value: 0.06147 and 0.06545 and 0.06938
CypG; Dose 0.545062 µM
  CypG prolyl-isomerase assay raw dose-response value: 0.06208 and 0.06061 and 0.06273
CypG; Dose 1.63519 µM
  CypG prolyl-isomerase assay raw dose-response value: 0.04663 and 0.04276 and 0.05928
CypG; Dose 4.90556 µM
  CypG prolyl-isomerase assay raw dose-response value: 0.04439 and 0.04343 and 0.05116
CypG; Dose 14.7167 µM
  CypG prolyl-isomerase assay raw dose-response value: 0.03836 and 0.03799 and 0.04109
CypG; Dose 44.15 µM
  CypG prolyl-isomerase assay raw dose-response value: 0.02708 and 0.02241 and 0.02205
CypG; wild-type CypG, read-out: Wild-Type Cyclophilin Prolyl Isomerase Inhibition IC50 Values, CypG
  IC50: 5000 nM
CypH; Dose 0.0201875 µM
  CypH prolyl-isomerase assay raw dose-response value: 0.05491 and 0.05835 and 0.05541
CypH; Dose 0.0605624 µM
  CypH prolyl-isomerase assay raw dose-response value: 0.04538 and 0.05559 and 0.06086
CypH; Dose 0.181687 µM
  CypH prolyl-isomerase assay raw dose-response value: 0.05774 and 0.04961 and 0.05822
CypH; Dose 0.545062 µM
  CypH prolyl-isomerase assay raw dose-response value: 0.05324 and 0.05013 and 0.05095
CypH; Dose 1.63519 µM
  CypH prolyl-isomerase assay raw dose-response value: 0.05541 and 0.05439 and 0.06013
CypH; Dose 4.90556 µM
  CypH prolyl-isomerase assay raw dose-response value: 0.05126 and 0.04228 and 0.05669
CypH; Dose 14.7167 µM
  CypH prolyl-isomerase assay raw dose-response value: 0.04371 and 0.04194 and 0.04598
CypH; Dose 44.15 µM
  CypH prolyl-isomerase assay raw dose-response value: 0.03624 and 0.03187 and 0.03195
CypH; prolyl-isomerase inhibition, 5 nM cyclophilin, read-out: IC50 CypH
  IC50: ~30000 nM
CypH; wild-type CypH, read-out: Wild-Type Cyclophilin Prolyl Isomerase Inhibition IC50 Values, CypH
  IC50: 30000 nM
CypB E121S
  IC50: 8 nM
